# Reference: US10759795B2, “Aza-A-ring indenoisoquinoline topoisomerase I poisons” (Purdue Research Foundation, priority 2016, dated 2020)
# pIC50: −log10 of the molar value. Where “and” joins values, the source holds several entries; their conditions need not be identical. Equal entries are not always repeated. Structures can show the parent of a compound that is named as a salt.
# Experiments:
# Top1 = molecular target: T1, Top1 (Homo sapiens, UniProt P11387); experiment: Top1-mediated DNA cleavage assay; type: biochemical; conditions: score based on the activity of 1 μM 1 (camptothecin); tested at 0.1, 1, 10, 100 μM
# T1 sequence (P11387 1-765): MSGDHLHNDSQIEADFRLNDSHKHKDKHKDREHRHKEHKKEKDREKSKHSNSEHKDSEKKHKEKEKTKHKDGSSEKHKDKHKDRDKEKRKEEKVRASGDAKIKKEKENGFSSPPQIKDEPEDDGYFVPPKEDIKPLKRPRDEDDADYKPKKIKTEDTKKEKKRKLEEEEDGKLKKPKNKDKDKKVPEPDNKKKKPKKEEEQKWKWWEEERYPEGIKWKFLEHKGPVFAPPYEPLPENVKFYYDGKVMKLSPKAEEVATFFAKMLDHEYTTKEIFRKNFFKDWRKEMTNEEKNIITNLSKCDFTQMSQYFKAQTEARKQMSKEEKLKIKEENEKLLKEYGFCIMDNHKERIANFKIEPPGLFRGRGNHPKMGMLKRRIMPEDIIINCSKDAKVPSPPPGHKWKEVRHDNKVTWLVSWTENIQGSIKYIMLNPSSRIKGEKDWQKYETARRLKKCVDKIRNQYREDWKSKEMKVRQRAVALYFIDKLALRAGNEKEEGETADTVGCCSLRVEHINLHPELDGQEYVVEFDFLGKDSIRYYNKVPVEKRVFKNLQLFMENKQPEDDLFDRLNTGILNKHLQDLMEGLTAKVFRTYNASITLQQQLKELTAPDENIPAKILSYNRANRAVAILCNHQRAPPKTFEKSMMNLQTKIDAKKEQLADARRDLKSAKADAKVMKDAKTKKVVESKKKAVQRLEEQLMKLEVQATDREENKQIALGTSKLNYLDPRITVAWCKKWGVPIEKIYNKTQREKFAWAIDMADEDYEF
# Protocol: Approximately 2 nM radiolabeled DNA substrate was incubated with recombinant Top in 20 μL of reaction buffer [10 mM Tris-HCl (pH 7.5), 50 mM KCl, 5 mM MgCl2, 0.1 mM EDTA, and 15 μg/mL BSA] at 25° C. for 20 min in the presence of various concentrations of test compounds. […] Aliquots of each reaction mixture were subjected to 20% denaturing PAGE.
# The Top1-mediated DNA cleavage assay was used to measure Top1 inhibitory activity. This assay measures the ability of the compound to stabilize DNA cleavage in a 3′-[^32P]-labeled DNA substrate via Top1 poisoning.
# recombinant TDP1 = recombinant TDP1 (Homo sapiens, UniProt Q9NUW8); experiment: Recombinant TDP1 assay; type: biochemical; conditions: recombinant TDP1, gel-based; read-out: TDP1: IC50 values for the inhibition of TDP1
# Protocol: A 5′-[^32P]-labeled single-stranded DNA oligonucleotide containing a 3′-phosphotyrosine (N14Y) was incubated at 1 nM with 10 pM recombinant TDP1 in the absence or presence of inhibitor for 15 min at room temperature in the LMP1 assay buffer containing 50 mM Tris HCl, pH 7.5, 80 mM KCl, 2 mM EDTA, 1 mM DTT, 40 μg/mL BSA, and 0.01% Tween-20^18. […] Gels were dried and exposed to a PhosphorImager screen (GE Healthcare). Gel images were scanned using a Typhoon 8600 (GE Healthcare), and densitometry analyses were performed using ImageQuant software (GE Healthcare).
# TDP1 is involved in the repair of DNA damage that results from the action of Top1 poisons, which induce the formation of DNA-protein adducts that include a 3′-phosphotyrosyl linkage. The TDP1 inhibition assay assesses a test agent's ability to inhibit the enzyme-induced cleavage of a 5′-^32P, 3′-phosphotyrosyl-DNA oligonucleotide, called N14Y. Cleavage of the phosphodiester bond between the 3′-phosphate and tyrosine releases […] from the DNA oligonucleotide. The enzyme-processed DNA oligonucleotide lacking its 3′-phosphotyrosyl moiety is designated N14P. A schematic representation of the assay and a representative gel are shown in FIG. 2, and the TDP1 screening results are listed in Table 1.
# recombinant human TDP2 = molecular target: T2, recombinant human TDP2 (Homo sapiens, UniProt O95551); experiment: Recombinant TDP2 assay; type: biochemical; conditions: recombinant human TDP2, gel-based; read-out: TDP2: IC50 values for the inhibition of TDP2
# T2 sequence (O95551 1-362): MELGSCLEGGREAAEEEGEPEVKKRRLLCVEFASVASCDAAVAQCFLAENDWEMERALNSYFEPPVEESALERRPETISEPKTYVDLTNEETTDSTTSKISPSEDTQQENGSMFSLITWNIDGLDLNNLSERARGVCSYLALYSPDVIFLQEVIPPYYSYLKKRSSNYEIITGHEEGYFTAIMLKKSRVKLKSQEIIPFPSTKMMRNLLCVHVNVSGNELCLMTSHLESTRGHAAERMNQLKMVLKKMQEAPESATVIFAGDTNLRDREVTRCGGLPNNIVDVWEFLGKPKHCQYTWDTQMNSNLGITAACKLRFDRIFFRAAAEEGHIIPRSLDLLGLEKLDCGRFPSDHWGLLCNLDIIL
# Source text: Reactions were terminated and treated similarly to recombinant TDP1 reactions.
# TDP2, as opposed to TDP1, cleaves the phosphotyrosyl linkage in 5′-phosphotyrosyl-DNA oligonucleotides.
# [1] = system: 60 human cancer cell lines; experiment: NCI-60 single-dose cytotoxicity assay; type: cell-based; conditions: mean-graph midpoint of percent growth of 60 human cancer cell lines, 10 μM drug, 48 h, relative to no-drug control and time zero
# Protocol: The new indenoisoquinolines were evaluated for cancer cell growth inhibitory activities. The National Cancer Institute's NCI-60 cytotoxicity assay measures the ability of test agents to inhibit the growth of approximately 60 different cancer cell lines. In the initial single-dose assay, cells are treated with a 10 μM dose of test agent. The growth of treated cells versus untreated cells is then compared. If a test agent induces a sufficiently low mean growth percent, it is promoted to five-dose testing to determine a mean graph midpoint (MGM) GI50 value. In five-dose testing, cells are treated with test agent concentrations ranging from 10^−8 to 10^−4 M. The concentration required to achieve 50% growth inhibition in a particular cell line is calculated. In situations in which this value is greater than 100 μM or less than 0.01 μM, it is recorded as 100 μM and 0.01 μM, respectively. The values for each of the tested cell lines are averaged to obtain a mean graph midpoint (MGM) GI50 value. MGM GI50 values are often, but not always, determined from two separate rounds (Table 1).
# Sequence of recombinant TDP1 (Q9NUW8 whole entry, species assumed): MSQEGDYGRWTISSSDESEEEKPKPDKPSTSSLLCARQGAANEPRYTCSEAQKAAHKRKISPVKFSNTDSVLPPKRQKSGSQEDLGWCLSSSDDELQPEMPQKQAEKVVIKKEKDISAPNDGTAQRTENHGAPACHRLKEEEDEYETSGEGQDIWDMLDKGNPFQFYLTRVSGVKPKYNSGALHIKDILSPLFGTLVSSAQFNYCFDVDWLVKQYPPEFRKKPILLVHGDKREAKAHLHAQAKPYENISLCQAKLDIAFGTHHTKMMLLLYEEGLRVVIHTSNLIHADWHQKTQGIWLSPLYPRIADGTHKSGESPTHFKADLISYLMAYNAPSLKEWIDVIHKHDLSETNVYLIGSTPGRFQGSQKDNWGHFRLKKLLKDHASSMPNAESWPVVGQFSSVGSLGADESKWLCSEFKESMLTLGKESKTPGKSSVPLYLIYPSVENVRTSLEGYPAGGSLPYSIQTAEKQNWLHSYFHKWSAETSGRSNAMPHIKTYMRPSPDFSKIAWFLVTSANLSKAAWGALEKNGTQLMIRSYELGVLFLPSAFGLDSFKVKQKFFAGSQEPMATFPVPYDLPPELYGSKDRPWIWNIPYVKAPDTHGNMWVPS
SMILES,Top 1: compound-induced DNA cleavage due to Top1 poisoning (Top1),pIC50 (recombinant TDP1),pIC50 (recombinant human TDP2),Mean Growth % [1],melting point
"O=C1c2ccccc2-c2c1c1cccnc1c(=O)n2CCCn1ccnc1 [Compound 43, 4-Aza-5,6-dihydro-6-(3-(1H-imidazol-1-yl)propyl)-5,11-dioxo-indeno[1,2-c]isoquinoline]","+++ (+++, between 75 and 95% activity)",< 3.95,< 3.95,49.6%,251 to 252 °C
"O=C1c2ccccc2-c2c1c1ncccc1c(=O)n2C[C@H](O)CO [Compound 48, (2′S)-1-Aza-5,6-dihydro-6-(2′,3′-dihydroxypropyl)-5,11-dioxo-indeno[1,2-c]isoquinoline]","+ (+, between 20 and 50%activity)",< 3.95,< 3.95,100%,245 to 250 °C (dec.)
"NCCCn1c2c(c3ncccc3c1=O)C(=O)c1ccccc1-2 (as salt: hydrochloride) [Compound 57, 6-(3-Aminopropyl)-1-aza-5,6-dihydro-5,11-dioxo-indeno[1,2-c]isoquinoline Dihydrochloride]",–,–,–,–,226 to 228 °C
"O=C1c2ccccc2-c2c1c1ncccc1c(=O)n2CCCN1CCOCC1 [Compound 36, 1-Aza-5,6-dihydro-6-(3-morpholinopropyl)-5,11-dioxo-indeno[1,2-c]isoquinoline]","++ (++, between 50 and 75% activity)",< 3.95,< 3.95,87.9%,223 to 224 °C
"O=C1c2ccccc2-c2c1c1ccncc1c(=O)n2CCCN1CCOCC1 [Compound 38, 3-Aza-5,6-dihydro-6-(3-morpholinopropyl)-5,11-dioxo-11H-indeno[1,2-c]isoquinoline]","++ (++, between 50 and 75% activity)",< 3.95,< 3.95,–,210 to 211 °C
"NCCCn1c2c(c3ccncc3c1=O)C(=O)c1ccccc1-2 [Compound 59, 6-(3-Aminopropyl)-3-aza-5,6-dihydro-5,11-dioxo-indeno[1,2-c]isoquinoline Dihydrochloride]",–,4.52 and 4.32,~3.95,–,–
"O=C1c2ccccc2-c2c1c1cccnc1c(=O)n2CCCN1CCOCC1 [Compound 39, 4-Aza-5,6-dihydro-6-(3-morpholinopropyl)-5,11-dioxo-indeno[1,2-c]isoquinoline]","+++ (+++, between 75 and 95% activity)",< 3.95,< 3.95,42.9%,177 to 178 °C
"O=C1c2ccccc2-c2c1c1cnccc1c(=O)n2CCCN1CCOCC1 [Compound 37, 2-Aza-5,6-dihydro-6-(3-morpholinopropyl)-5,11-dioxo-indeno[1,2-c]isoquinoline]","+++ (+++, between 75 and 95% activity)",< 3.95,< 3.95,–,218 to 219 °C
"NCCCn1c2c(c3cnccc3c1=O)C(=O)c1ccccc1-2 (as salt: hydrochloride) [Compound 58, 6-(3-Aminopropyl)-2-aza-5,6-dihydro-5,11-dioxo-indeno[1,2-c]isoquinoline Dihydrochloride]",–,–,–,–,272 to 274 °C
"O=C1c2ccccc2-c2c1c1cccnc1c(=O)n2C[C@H](O)CO [Compound 51, (2′S)-4-Aza-5,6-dihydro-6-(2′,3′-dihydroxypropyl)-5,11-dioxo-indeno[1,2-c]isoquinoline]","+ (+, between 20 and 50%activity)",< 3.95,< 3.95,61.7%,247 to 255 °C
"NCCCn1c2c(c3cccnc3c1=O)C(=O)c1ccccc1-2 (as salt: hydrochloride) [Compound 60, 6-(3-Aminopropyl)-4-aza-5,6-dihydro-5,11-dioxo-indeno[1,2-c]isoquinoline Dihydrochloride]",–,–,–,–,284 to 286 °C
"O=C1c2ccccc2-c2c1c1ncccc1c(=O)n2CCCn1ccnc1 [Compound 40, 1-Aza-5,6-dihydro-6-(3-(1H-imidazol-1-yl)propyl)-5,11-dioxo-indeno[1,2-c]isoquinoline]","++ (++, between 50 and 75% activity)",< 3.95,< 3.95,83.6%,242 to 243 °C
"NCCCn1c2c(c3ncccc3c1=O)C(=O)c1ccccc1-2 [Compound 57, 6-(3-Aminopropyl)-1-aza-5,6-dihydro-5,11-dioxo-indeno[1,2-c]isoquinoline Dihydrochloride]","++ (++, between 50 and 75% activity)",4.37 and 4.20,< 3.95,–,–
"O=C1c2ccccc2-c2c1c1ccncc1c(=O)n2C[C@H](O)CO [Compound 50, (2′S)-3-Aza-5,6-dihydro-6-(2′,3′-dihydroxypropyl)-5,11-dioxo-indeno[1,2-c]isoquinoline]","++ (++, between 50 and 75% activity)",–,–,–,237 to 238 °C
"NCCCn1c2c(c3cnccc3c1=O)C(=O)c1ccccc1-2 [Compound 58, 6-(3-Aminopropyl)-2-aza-5,6-dihydro-5,11-dioxo-indeno[1,2-c]isoquinoline Dihydrochloride]","++ (++, between 50 and 75% activity)",4.72 and 4.52,~3.95,–,–
"NCCCn1c2c(c3ccncc3c1=O)C(=O)c1ccccc1-2 (as salt: hydrochloride) [Compound 59, 6-(3-Aminopropyl)-3-aza-5,6-dihydro-5,11-dioxo-indeno[1,2-c]isoquinoline Dihydrochloride]",–,–,–,–,253 to 254 °C
